58 compounds from PMC12040169 (PLOS Biology, 2025) can be followed below.

The nature of the first series: in vitro. As to conditions: human, hela cells, % viability.
`CCNC(=O)N1CC2(CCN(Cc3ccc(Cl)c(Cl)c3)CC2)c2ccccc21` [CBK126690]: the viability at 28.5 h, 10 µM was 95.4%.

In the case of `CCN(CC)CCN1C(=O)c2oc3cc(C)c(C)cc3c(=O)c2C1c1cc(Br)c(O)c(OC)c1` (stereo not shown) [CBK266846], the viability at 28.5 h, 10 µM worked out at 105%.

In the case of `O=S(=O)(N1CCCCCC1)N1CCNCC1` [CBK269219C], the viability at 28.5 h, 10 µM worked out at 96.5%.

`COc1ccccc1-c1ccccc1CN(C)Cc1ccccc1N1CCOCC1` [CBK286000]: the viability at 28.5 h, 10 µM stood at 88.7%.

As for `O=C(Nc1nnn[nH]1)C12CC3CC(CC(C3)C1)C2` [CBK262276], the viability at 28.5 h, 10 µM is 82.4%.

As to `COc1cc(CN2CCN(C/C=C/c3ccccc3)CC2)cc(Br)c1O` [CBK261582], the viability at 28.5 h, 10 µM came to 101%.

For `O=C(O)C1CCCN1S(=O)(=O)c1ccc(Cl)c(Cl)c1` (stereo not shown) [CBK217856], the viability at 28.5 h, 10 µM came out at 99.1%.

Take `COC(=O)C(C)(C)NC(=O)c1ccn(-c2cc(C)ccc2OC)n1` [CBK305989]: the viability at 28.5 h, 10 µM was 107%.

For the compound `CC[C@H]1CN(C(=O)Nc2ccccc2)CC[C@H]1CC(=O)N(C)CC#N` [CBK288777], the viability at 28.5 h, 10 µM stood at 101%.

Regarding `O=[N+]([O-])c1ccc(Oc2ccccc2F)cc1` [CBK002532], the viability at 28.5 h, 10 µM came to 93.9%.

For `CC(C)c1ccc(S(=O)(=O)N(C)Cc2cccnc2)cc1` [CBK043582], the viability at 28.5 h, 10 µM amounted to 108%.

Regarding `CC(=O)c1ccc(NC(=O)CSc2ncccc2C(=O)O)cc1` [CBK299798], the viability at 28.5 h, 10 µM came to 94.4%.

Regarding `O=C(Nc1nnc(C2=COCCO2)o1)c1ccco1` [CBK287412], the viability at 28.5 h, 10 µM was 95.5%.

In the case of `O=S(=O)(Nc1cc(OC2CCCNC2)c2occc2c1)c1cc(F)ccc1F` (stereo not shown) [CBK073996C], the viability at 28.5 h, 10 µM is 105%.

As for `O=c1ccccn1COCc1ccccc1` [CBK006438], the viability at 28.5 h, 10 µM is 103%.

For `COC(=O)CCCC(=O)n1ccn(CCc2cccs2)c1=O` [CBK106612], the viability at 28.5 h, 10 µM is 92%.

Take `COc1cc(NC(=O)CN2CCc3c(c(CO)nn3C)C2)cc(OC)c1` [CBK306841]: the viability at 28.5 h, 10 µM was determined as 114%.

In the case of `CC(NC(=O)c1ccccc1)C(=O)OCn1nnc2ccccc2c1=O` (stereo not shown) [CBK297001], the viability at 28.5 h, 10 µM is 92%.

As to `O=C(O)CC/C(=N\NC(=O)c1cccnc1)c1ccccc1` [CBK261305], the viability at 28.5 h, 10 µM was 97.2%.

With `Cn1c(SCC(=O)O)nnc1-c1cc(Br)ccc1O` [CBK269150], the viability at 28.5 h, 10 µM is 103%.

`CC1CC(C)CN(C(=O)Cn2c(=O)n(C)c3ncccc32)C1` (stereo not shown) [CBK283794]: the viability at 28.5 h, 10 µM came to 93.8%.

Regarding `Cc1cccc(-c2n[nH]c(=S)n2CC(=O)NCc2cn(-c3ccccc3)nc2-c2ccccc2)c1` [CBK297941], the viability at 28.5 h, 10 µM was found to be 88.1%.

Regarding `Cc1sc2nc(C3CC3)n(C3CCNCC3)c(=O)c2c1C` [CBK284228], the viability at 28.5 h, 10 µM is 92.3%.

Turning to `CN(C)CC(=O)N1CN(C(=O)c2cccc(Br)c2)C(C)(C)C1` [CBK092206C], the viability at 28.5 h, 10 µM was 97.4%.

As for `O=C(NC(=O)N1CCC2(C1)NCCc1c2[nH]c2ccccc12)c1ccccc1` (stereo not shown) [CBK046985], the viability at 28.5 h, 10 µM worked out at 94.2%.

On to `CC(C)CN(Cc1cccs1)C(=O)c1cc2n(n1)CCCN(C)C2` [CBK306793], for which the viability at 28.5 h, 10 µM worked out at 102%.

Take `CN(C)CC(=O)Nc1ccc(Oc2ccc(Cl)cc2)cc1` [CBK269459C]: the viability at 28.5 h, 10 µM came to 94.9%.

On to `O=C1C=C(N2CCC(CCC3CCN(C4=CC(=O)CCC4)CC3)CC2)CCC1` [CBK007126], for which the viability at 28.5 h, 10 µM was 105%.

Take `O=C(NC[C@H]1O[C@@H](CC(=O)N2CCN(c3ccccc3)CC2)[C@H](O)[C@@H]1O)c1ccccc1` [CBK288920]: the viability at 28.5 h, 10 µM came to 108%.

As for `Clc1ccc(CNCc2cccnc2)cc1` [CBK086257C], the viability at 28.5 h, 10 µM was determined as 108%.

As to `COc1cccc(CCC(=O)n2ccn(-c3ccc(N(C)C)cc3)c2=O)c1` [CBK106609], the viability at 28.5 h, 10 µM was found to be 99%.

On to `Cn1c(-c2cc(=O)c(C(=O)O)c[nH]2)n[nH]c1=O` [CBK012603], for which the viability at 28.5 h, 10 µM came to 79.6%.

Regarding `CC1(C)NC(=O)N(CC(O)CN2CCCC2)C1=O` (stereo not shown) [CBK264558], the viability at 28.5 h, 10 µM was determined as 96.3%.

For `O=c1[nH]c(=O)n(C2CC(O)C(CO)O2)cc1F` (stereo not shown) [CBK011695], the viability at 28.5 h, 10 µM worked out at 49.6%.

As for `CS(=O)(=O)NC1CCN(c2nc(C(F)(F)F)nc3ccsc23)CC1` [CBK304592], the viability at 28.5 h, 10 µM is 109%.

For the compound `CN(Cc1ccccc1)S(=O)(=O)c1ccccc1[N+](=O)[O-]` [CBK261458], the viability at 28.5 h, 10 µM turned out to be 92.3%.

Consider `O=C1CC(SCCc2nc3ccccc3[nH]2)C(=O)N1c1ccc(F)cc1` (stereo not shown) [CBK267500], for which the viability at 28.5 h, 10 µM turned out to be 88.8%.

Turning to `CN1C(=O)COc2ccccc2CCCC[C@@H]2[C@H]1CCCN2CC(N)=O` [CBK292098], the viability at 28.5 h, 10 µM stood at 105%.

With `COc1ccccc1CN(CC1CCNCC1)C(=O)NC(c1ccccc1)c1ccccc1` [CBK049741], the viability at 28.5 h, 10 µM was 115%.

For the compound `COC(=O)c1ccc(CNc2nc(OC)cc(OC)n2)cc1` [CBK093391], the viability at 28.5 h, 10 µM was 95%.

Turning to `CN(CC(=O)Nc1nnc[nH]1)S(=O)(=O)c1cc(Cl)ccc1Cl` [CBK267433], the viability at 28.5 h, 10 µM amounted to 97%.

For the compound `Cc1nc(C)n(CC(=O)N2CCc3sccc3C2c2ccco2)n1` (stereo not shown) [CBK281649], the viability at 28.5 h, 10 µM was 98.8%.

On to `O=C(O)C1=CC(c2c[nH]nc2-c2ccc(F)cc2)n2ncnc2N1` (stereo not shown) [CBK286906], for which the viability at 28.5 h, 10 µM was 86.2%.

Take `CCn1c2cc(C)sc2c2cnn(CC(=O)OC)c(=O)c21` [CBK284186]: the viability at 28.5 h, 10 µM came to 86.3%.

As for `Cc1noc(C)c1C(=O)N1CCn2cc(C(F)(F)F)nc2C1` [CBK282431], the viability at 28.5 h, 10 µM was 90.2%.

In the case of `Cc1cc(C)c2cc(C(=O)N(C)CC3(C)COC3)[nH]c2c1` [CBK281711], the viability at 28.5 h, 10 µM worked out at 87%.

As for `CCOC(=O)CN1C(=O)S/C(=C/c2cc(C)n(-c3ccc(S(N)(=O)=O)cc3)c2C)C1=O` [CBK265410], the viability at 28.5 h, 10 µM was determined as 94%.

`O=S(=O)(Nc1nc(-c2sccc2Cl)cs1)c1cc(Br)c(Cl)s1` [CBK200030]: the viability at 28.5 h, 10 µM was 107%.

Consider `Nc1c(-c2ccsc2)cnc2cccnc12` [CBK081208], for which the viability at 28.5 h, 10 µM worked out at 87.8%.

For the compound `O=C(CN1CCC(c2ccccc2F)CC1)NC1CCCC1` [CBK283551], the viability at 28.5 h, 10 µM stood at 97.4%.

As for `COc1ccc(C[C@@H]2NC(=O)[C@H]3CN(C(=O)Nc4cccc(OC)c4)CCN3C2=O)cc1` [CBK289617], the viability at 28.5 h, 10 µM worked out at 98.9%.

Consider `O=C(N[C@@H](Cn1cc(Cl)c(=O)[nH]c1=O)C(=O)O)C1CC1` [CBK289649], for which the viability at 28.5 h, 10 µM came out at 88.3%.

In the case of `CCOc1cccc(CNc2ccc(O)cc2)c1OCc1ccccc1Cl` [CBK074473], the viability at 28.5 h, 10 µM came out at 87.7%.

As to `CCOC(=O)C1CC1CN1CCCN(S(=O)(=O)c2ccc(C(=O)c3ccccc3)cc2)CC1` (stereo not shown) [CBK063028], the viability at 28.5 h, 10 µM turned out to be 88.6%.

For `CC(C)=NNC(=O)CN(c1ccc(C)cc1)S(=O)(=O)c1ccccc1` [CBK262280], the viability at 28.5 h, 10 µM was 99.4%.

In the case of `CCNc1nc(-c2ccsc2)cn2ccnc12` [CBK037375], the viability at 28.5 h, 10 µM worked out at 87.9%.

Still in this series, the particulars now being: human, hela cells, % viability, bulk resorufin, single well.
`COc1ccc(-c2ccc3c(c2)OC2(CCNCC2)O3)c(OC)c1` [CBK091451]: the viability at 28.5 h, 10 µM is 93.2%.

On to `CC1(C)CC(=O)C=C(C(=O)Nc2cccc(-c3ccc4c(c3)COC3(CCNCC3)O4)c2)O1` [CBK093704], for which the viability at 28.5 h, 10 µM worked out at 97.8%.

For orientation: viability means a read-out of living cells in per cent, often relative to untreated cells.
